How the values were obtained:
human dermal fibroblasts = experiment: UVA-induced intracellular amplification of ROS (dihydrorhodamine 123, flow cytometry); format: cell-based
Protocol: The modulating effect of the tripeptides […]) and Thyrotropin Releasing Hormones (TRH, Protirelin, Thyoliberin, […]) was examined on human dermal fibroblasts that were seeded into 3.5 cm^2 tissue culture dishes in a density of 150,000 per dish in […] medium. Two days after seeding the cells, the medium supplemented with 10% foetal calf serum, 1% L-glutamine and 1% penicillin/streptomycin was exchanged with serum-free RPMI medium and pre-incubated for 24 hours with KPV, […] Subsequently, the cells were exposed to a physiological dose of UVA radiation (10 J/cm^2). Immediately after radiation, the cells were incubated with 5 μM dihydrorhodamine 123 plus 5 mM glucose in phosphate buffer (PBS) for 30 minutes. Subsequently, the cells were trypsinized, resuspended in PBS with 5 mM glucose and analyzed by means of flow cytometry (FACS, FACSCalibur with 488 nm argon laser). The above dihydrorhodamine probe is oxidized in the presence of intracellular ROS into green fluorescent […] and, thus, can be measured fluorometrically. A total of 10×10^3 cells per probe were analyzed and evaluated using CELL-QUEST software. The median of the FL-1 channel was used as parameter for the intracellular ROS amount, since it represents the maximum number of cells with the highest fluorescence. […]

B16.F1 melanoma cells = experiment: Extracellular melanin accumulation (optical density 405 nm); format: cell-based, mouse; conditions: peptides at 10^-6, 10^-8 and 10^-10 M; NDP-α-MSH 10^-8 M; 72 hrs (FIG. 3)
Description: It is also preferred that the compounds of the invention have no or merely a negligible melanotropic effect. “Melanotropic effect” means that the compound induces the extracellular melanin accumulation in a cell assay in accordance with the method described in the appended example 2 and/or in accordance with the method described in Siegrist and Eberle (Anal. Biochem. 1986; 159; 191-197), title “In situ melanin assay for MSH using mouse B16 melanoma cells in culture”. “No or negligible” means that the mean melanin accumulation which is induced by the compounds of the invention exceeds the mean melanin accumulation which is induced by at least one of the two compounds as exemplified in Example 2 by not more than about 40%, 30%, 20%, 15%, 10%, 5%, 2.5%, 2% or 1%, preferably under conditions which equate to or are identical with those set out in Example 2. The skilled person is able to justify which assay conditions/assays equate with the assay/conditions exemplified in the appended examples. The melanin accumulation evaluated in Example 2 is depicted in FIG. 3. The effect of the compounds of the invention on extracellular melanin accumulation is thus determinable by the methods disclosed herein. […]

Compound | UVA-induced intracellular amplification of ROS (oxidative stress) (human dermal fibroblasts; 10^-8 M peptide, 24 h pre-incubation, UVA 10 J/cm^2, significant, p<0.001 (FIG. 1)) | effect on UVA-induced intracellular amplification of ROS compared to vitamin C (ascorbate) (human dermal fibroblasts; peptide 10^-8M vs vitamin C at 10^-2M as printed (FIG. 2)) | melanotropic effect (extracellular melanin accumulation) (B16.F1 melanoma cells)
NC(=O)[C@@H]1CCCN1C(=O)[C@H](Cc1c[nH]cn1)NC(=O)[C@@H]1CCC(=O)N1 [TRH, L-Pyroglutamyl-L-histidyl-L-prolinamid] | suppressed | comparable with that of vitamin C | –
NDP-α-MSH | – | – | p<0.001 vs. control
